Measurements as given in patent US20100298252A1, “METHODS AND COMPOSITIONS FOR OPHTHALMIC TREATMENT OF FUNGAL AND BACTERIAL INFECTIONS” (priority 2004, published 2010).

Columns and labels:
Fusarium sp. 3 = assay: microbe, parasite or virus in culture; format: cell-based
Aspergillus sp. = assay: Antifungal MIC 50 / MIC 90 alone and combined with Tricide; format: cell-based
[1] = system: Candidia albicans ATCC 90028; assay: as above; format: cell-based, Candida albicans;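 note: MIC 50 and MIC 90 values are means, and the percent decrease is the drop in MIC when the antifungal is combined with Tricide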
Fusarium sp. 2 = assay: microbe, parasite or virus in culture; format: cell-based
Cladosporium sp. = assay: Antifungal MIC 50 / MIC 90 alone and combined with Tricide; format: cell-based
[2] = system: Paecilomyces variotti ATCC 36257; assay: as above; format: cell-based
Curvularia sp. = assay: as above; format: cell-based;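 note: antifungal MIC 50 and MIC 90 values against fungal isolates, with percent figures expressing how much the MIC fell once Tricide was added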
Fusarium sp. 1 = assay: microbe, parasite or virus in culture; format: cell-based;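 note: mean MIC 50 and MIC 90 values against fungal isolates, with percent decrease in MIC when the antifungal is combined with Tricide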
Penicillium sp. = assay: Antifungal MIC 50 / MIC 90 alone and combined with Tricide; format: cell-based
[3] = Aspergillus sp., Tricide 200 ug/ml
[4] = Aspergillus, Aspergiullus sp., antifungal alone
[5] = Candida albicans, ATCC90028, Candidia albicans ATCC 90028, antifungal alone
[6] = Paecilomyces variotti ATCC36257
[7] = Paecilomyces variotti, Tricide […]
[8] = Curvilaria sp., Tricide 200 ug/ml
[9] = Curvularia sp., antifungal alone
[10] = Fusarium sp. 1, Tricide 540 ug/ml
[11] = Fusarium sp. 1, antifungal alone

For `CCC(C)n1ncn(-c2ccc(N3CCN(c4ccc(OCC5COC(Cn6cncn6)(c6ccc(Cl)cc6Cl)O5)cc4)CC3)cc2)c1=O` (centres unmarked) [Itraconazole, itraconazole], the “Summary % reduction in MIC 50 using Tricide” value (Fusarium sp. 3) was 100%, the “Summary % reduction in MIC 90 using Tricide” value (Fusarium sp. 3) was 100% and the “% decrease MIC 50” value (Fusarium sp. 3; Tricide 540 ug/ml) was 100%. The “% decrease MIC 90” value (Fusarium sp. 3; Tricide 540 ug/ml) was 100%, the “MIC 50 combined with Tricide” value (Fusarium sp. 3; Tricide 540 ug/ml) was 0 µg/mL and the “MIC 90 combined with Tricide” value (Fusarium sp. 3; Tricide 540 ug/ml) was 0 µg/mL. For the same compound, the MIC50 (Fusarium sp. 3; antifungal alone) was > 128 µg/mL, the MIC90 (Fusarium sp. 3; antifungal alone) was > 128 µg/mL and the “% decrease MIC 50” value (Aspergillus sp.; [3]) was 84%. The “% decrease MIC 90” value (Aspergillus sp.; [3]) was 90%, the “MIC 50 combined with Tricide” value (Aspergillus sp.; [3]) was 0.1250 µg/mL and the “MIC 90 combined with Tricide” value (Aspergillus sp.; [3]) was 0.25 µg/mL. The MIC50 (Aspergillus sp.; [4]) was 0.786 µg/mL, the MIC90 (Aspergillus sp.; [4]) was 2.43 µg/mL and the “Summary % reduction in MIC 50 using Tricide” value (Aspergillus sp.; Aspergiullus sp.) was 84%. The “Summary % reduction in MIC 90 using Tricide” value (Aspergillus sp.; Aspergiullus sp.) was 90%, the MIC50 [1, 5] was 0.201 µg/mL and the MIC90 [1, 5] was > 1 µg/mL. For the same compound, the “% decrease MIC 50” value ([1]; Candida albicans, Tricide […]) was 100%, the “% decrease MIC 90” value ([1]; Candida albicans, Tricide […]) was 100% and the “MIC 50 combined with Tricide” value ([1]; Candida albicans, Tricide […]) was 0 µg/mL. For the same compound, the “Summary % reduction in MIC 50 using Tricide” value ([1]; Candidia albicans ATCC 90028) was 100%, the “Summary % reduction in MIC 90 using Tricide” value ([1]; Candidia albicans ATCC 90028) was 100% and the “Summary % reduction in MIC 50 using Tricide” value (Fusarium sp. 2) was >99.9%-100%. For the same compound, the “Summary % reduction in MIC 90 using Tricide” value (Fusarium sp. 2) was >99.9%-100%, the “% decrease MIC 50” value (Fusarium sp. 2; Tricide 540 ug/ml) was >99.9-100% ^ and the “% decrease MIC 90” value (Fusarium sp. 2; Tricide 540 ug/ml) was >99.9-100% ^. For the same compound, the MIC50 (Fusarium sp. 2; antifungal alone) was > 128 µg/mL, the MIC90 (Fusarium sp. 2; antifungal alone) was > 128 µg/mL and the “Summary % reduction in MIC 50 using Tricide” value (Cladosporium sp.) was 93.8%. The “Summary % reduction in MIC 90 using Tricide” value (Cladosporium sp.) was 96.9%, the “% decrease MIC 50” value (Cladosporium sp.; Tricide 200 ug/ml) was >93.8% ^ and the “% decrease MIC 90” value (Cladosporium sp.; Tricide 200 ug/ml) was 96.9%. The “MIC 50 combined with Tricide” value (Cladosporium sp.; Tricide 200 ug/ml) was <0.25 µg/mL, the “MIC 90 combined with Tricide” value (Cladosporium sp.; Tricide 200 ug/ml) was 0.5 µg/mL and the MIC50 (Cladosporium sp.; antifungal alone) was 4 µg/mL. It also gave an MIC90 (Cladosporium sp.; antifungal alone) of 16 µg/mL, an MIC50 ([2]; ATCC36257, Paecilomyces variotti ATCC 36257, antifungal alone, read-out: MIC 50) of 0.0764 µg/mL and an MIC90 ([2]; ATCC36257, Paecilomyces variotti ATCC 36257, antifungal alone, read-out: MIC 90) of 0.5 µg/mL. The “Summary % reduction in MIC 50 using Tricide” value [2, 6] was 95%, the “Summary % reduction in MIC 90 using Tricide” value [2, 6] was 50% and the “% decrease MIC 50” value [2, 7] was 95%. The “% decrease MIC 90” value [2, 7] was 50%, the “MIC 50 combined with Tricide” value [2, 7] was 0.0039 µg/mL and the “MIC 90 combined with Tricide” value [2, 7] was 0.25 µg/mL. For the same compound, the “% decrease MIC 50” value (Curvularia sp.; [8]) was 97-100% ^, the “% decrease MIC 90” value (Curvularia sp.; [8]) was 80-100% ^ and the “MIC 50 combined with Tricide” value (Curvularia sp.; [8]) was 0 to 0.0250 µg/mL. For the same compound, the “MIC 90 combined with Tricide” value (Curvularia sp.; [8]) was 0 to 0.4 µg/mL, the “Summary % reduction in MIC 50 using Tricide” value (Curvularia sp.; Curvularia sp.) was 97%-100% and the “Summary % reduction in MIC 90 using Tricide” value (Curvularia sp.; Curvularia sp.) was 80%-100%. The MIC50 (Curvularia sp.; [9]) was 0.778 µg/mL, the MIC90 (Curvularia sp.; [9]) was 2 µg/mL and the “Summary % reduction in MIC 50 using Tricide” value (Fusarium sp. 1; Fasarium sp. 1) was >99.9%-100%. For the same compound, the “Summary % reduction in MIC 90 using Tricide” value (Fusarium sp. 1; Fasarium sp. 1) was 99.9%-100%, the “% decrease MIC 50” value (Fusarium sp. 1; [10]) was >99.9-100% ^ and the “% decrease MIC 90” value (Fusarium sp. 1; [10]) was 99.9-100%^. For the same compound, the “MIC 90 combined with Tricide” value (Fusarium sp. 1; [10]) was 0 to 0.05 µg/mL, the MIC50 (Fusarium sp. 1; [11]) was > 128 µg/mL and the MIC90 (Fusarium sp. 1; [11]) was > 128 µg/mL. The “Summary % reduction in MIC 50 using Tricide” value (Penicillium sp.) was 100%, the “Summary % reduction in MIC 90 using Tricide” value (Penicillium sp.) was 100% and the “% decrease MIC 50” value (Penicillium sp.; Tricide 200 ug/ml) was 100%. For the same compound, the “% decrease MIC 90” value (Penicillium sp.; Tricide 200 ug/ml) was 100%, the “MIC 50 combined with Tricide” value (Penicillium sp.; Tricide 200 ug/ml) was 0 µg/mL and the “MIC 90 combined with Tricide” value (Penicillium sp.; Tricide 200 ug/ml) was 0 µg/mL. It also gave an MIC50 (Penicillium sp.; antifungal alone) of 0.5 µg/mL and an MIC90 (Penicillium sp.; antifungal alone) of 0.722 µg/mL.
